Measured values as given in ChEMBL document CHEMBL4420076, “Amylin and calcitonin receptor agonist” (2017).
Numbered stars: 1 amine (or outer) side, 2 acyl side, 3 side chain; on linkers, the order of the positions; unused ones are H or OH. Peptide text beside a SMILES is read from it. * marks the point of attachment. C18 diacid = O=C(O)CCCCCCCCCCCCCCCCC(=O)*; γGlu = O=C(O)[C@H](CCC(=O)[*:2])N[*:1]

What was measured:
[1] = Solubility in 100 mM bistrispropane buffer at pH 6.5 incubated for 18 hrs by UPLC analysis; assay type: physicochemical
[2] = Solubility in 100 mM bistrispropane buffer at pH 7.5 incubated for 18 hrs by UPLC analysis; assay type: physicochemical
[3] = molecular target: T1, Amylin receptor AMY3; CALCR/RAMP3 (Homo sapiens, UniProt O60896+P30988); assay: Displacement of [125I]-labeled rat amylin from human amylin receptor expressed in BHK tkts13 whole cells co-expressing RAMP3 incubated for 60 mins by scintillation proximity assay; assay type: cell-based
T1 sequence (P30988 whole entry): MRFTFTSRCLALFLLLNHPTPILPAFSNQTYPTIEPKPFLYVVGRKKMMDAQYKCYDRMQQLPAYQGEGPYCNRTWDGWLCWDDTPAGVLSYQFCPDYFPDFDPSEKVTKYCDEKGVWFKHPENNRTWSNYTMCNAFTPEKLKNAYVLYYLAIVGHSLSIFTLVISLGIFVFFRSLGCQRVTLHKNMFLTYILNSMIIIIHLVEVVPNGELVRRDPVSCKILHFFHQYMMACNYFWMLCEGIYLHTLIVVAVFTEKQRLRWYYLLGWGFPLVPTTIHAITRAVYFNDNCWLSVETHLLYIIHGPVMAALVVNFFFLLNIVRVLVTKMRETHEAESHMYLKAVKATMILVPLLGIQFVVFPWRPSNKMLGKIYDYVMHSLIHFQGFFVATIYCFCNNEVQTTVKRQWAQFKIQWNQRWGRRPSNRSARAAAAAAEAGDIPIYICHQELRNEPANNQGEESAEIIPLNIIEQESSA
T1 sequence (O60896 whole entry): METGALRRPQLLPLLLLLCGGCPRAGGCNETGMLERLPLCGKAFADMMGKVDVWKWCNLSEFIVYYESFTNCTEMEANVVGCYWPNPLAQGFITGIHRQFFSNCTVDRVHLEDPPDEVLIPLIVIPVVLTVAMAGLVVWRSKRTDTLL

[4] = Solubility in 100 mM glycylglycine buffer at pH 4.0 incubated for 18 hrs by UPLC analysis; assay type: physicochemical
[5] = Solubility in 100 mM bistrispropane buffer at pH 7.0 incubated for 18 hrs by UPLC analysis; assay type: physicochemical
[6] = Solubility in 100 mM glycylglycine buffer at pH 5.0 incubated for 18 hrs by UPLC analysis; assay type: physicochemical
[7] = Solubility in 100 mM bistrispropane buffer at pH 8.0 incubated for 18 hrs by UPLC analysis; assay type: physicochemical
Calcitonin receptor = molecular target: T2, Calcitonin receptor (Homo sapiens, UniProt P30988); assay: Agonist activity at human calcitonin receptor expressed in BHK570 cells assessed as increase in intracellular cAMP concentration incubated for 3 hrs in absence of albumin by CRE luciferase reporter gene assay; assay type: functional, cell-based
T2 sequence (P30988 whole entry): T1 sequence (P30988 whole entry)

[8] = molecular target: T1, Amylin receptor AMY3; CALCR/RAMP3; assay: Agonist activity at human amylin receptor expressed in BHK570 cells co-expressing RAMP3 assessed as increase in intracellular cAMP concentration incubated for 3 hrs in absence of albumin by CRE luciferase reporter gene assay; assay type: functional, cell-based
[9] = Solubility in 100 mM glycylglycine buffer at pH 3.0 incubated for 18 hrs by UPLC analysis; assay type: physicochemical
[10] = Solubility in 100 mM bistrispropane buffer at pH 6.0 incubated for 18 hrs by UPLC analysis; assay type: physicochemical

Row | SMILES | solubility at 18 h [1] | solubility at 18 h [2] | IC50 [3] | solubility at 18 h [4] | solubility at 18 h [5] | solubility at 18 h [6] | solubility at 18 h [7] | EC50 (Calcitonin receptor) | EC50 [8] | solubility at 18 h [9] | solubility at 18 h [10]
1 | CC(C)C[C@H](NC(=O)[C@H](C)NC(=O)[C@H](C)NC(=O)[C@@H](NC(=O)[C@H](CO)NC(=O)[C@H](CC(C)C)NC(=O)[C@H](CCC(N)=O)NC(=O)[C@H](CO)NC(=O)[C@H](C)NC(=O)CC[C@H](NC(=O)CCCCCCCCCCCCCCCCC(=O)O)C(=O)O)[C@@H](C)O)C(=O)NCC(=O)N[C@@H](CCCNC(=N)N)C(=O)N[C@@H](CC(C)C)C(=O)N[C@@H](CO)C(=O)N[C@@H](C)C(=O)N[C@@H](CCC(N)=O)C(=O)N[C@@H](CC(C)C)C(=O)N[C@@H](Cc1cnc[nH]1)C(=O)N[C@@H](CCC(=O)O)C(=O)N[C@@H](CC(C)C)C(=O)N[C@@H](C)C(=O)N[C@H](C(=O)N[C@@H](CC(C)C)C(=O)N1CCC[C@H]1C(=O)N[C@@H](CCCNC(=N)N)C(=O)N[C@H](C(=O)N[C@@H](CCC(=O)O)C(=O)N[C@H](C(=O)NCC(=O)N[C@@H](CO)C(=O)NCC(=O)N[C@@H](CO)C(=O)N1CCC[C@H]1C(N)=O)[C@@H](C)O)[C@@H](C)O)[C@@H](C)O ({C18 diacid-γGlu}-ASQLSTAALGRLSAQLHELATLPRTETGSGSP-NH2) | ≥ 200 µM | ≥ 200 µM | 0.428 nM | ≥ 200 µM | ≥ 200 µM | ≥ 200 µM | ≥ 200 µM | 0.013 nM | 0.009 nM | ≥ 200 µM | ≥ 200 µM
2 | CC(C)C[C@H](NC(=O)[C@H](C)NC(=O)[C@H](C)NC(=O)[C@@H](NC(=O)[C@H](CO)NC(=O)[C@H](Cc1cnc[nH]1)NC(=O)[C@H](CCC(=O)O)NC(=O)[C@H](CO)NC(=O)[C@H](C)NC(=O)[C@H](CCC(=O)O)NC(=O)CCCCCCCCCCCCCCCCC(=O)O)[C@@H](C)O)C(=O)NCC(=O)N[C@@H](CCCNC(=N)N)C(=O)N[C@@H](CC(C)C)C(=O)N[C@@H](CO)C(=O)N[C@@H](C)C(=O)N[C@@H](CCC(=O)O)C(=O)N[C@@H](CC(C)C)C(=O)N[C@@H](Cc1cnc[nH]1)C(=O)N[C@@H](CCC(=O)O)C(=O)N[C@@H](CC(C)C)C(=O)N[C@@H](C)C(=O)N[C@H](C(=O)N[C@@H](CC(C)C)C(=O)N1CCC[C@H]1C(=O)N[C@@H](CCCNC(=N)N)C(=O)N[C@H](C(=O)N[C@@H](CCC(=O)O)C(=O)N[C@H](C(=O)NCC(=O)N1CCC[C@H]1C(=O)N[C@@H](CCC(=O)O)C(=O)N[C@@H](CO)C(=O)N1CCC[C@H]1C(N)=O)[C@@H](C)O)[C@@H](C)O)[C@@H](C)O ({C18 diacid}-EASEHSTAALGRLSAELHELATLPRTETGPESP-NH2) | ≥ 200 µM | ≥ 200 µM | 0.832 nM | ≥ 200 µM | ≥ 200 µM | ≥ 200 µM | ≥ 200 µM | 0.006 nM | 0.008 nM | ≥ 200 µM | ≥ 200 µM
3 | CC[C@H](C)[C@H](NC(=O)[C@H](C)NC(=O)[C@@H](NC(=O)[C@H](CO)NC(=O)[C@H](CC(C)C)NC(=O)[C@H](CCC(=O)O)NC(=O)[C@H](CO)NC(=O)[C@H](C)NC(=O)[C@H](CCC(=O)O)NC(=O)CCCCCCCCCCCCCCCCC(=O)O)[C@@H](C)O)C(=O)N[C@@H](CC(C)C)C(=O)NCC(=O)N[C@@H](CCCNC(=N)N)C(=O)N[C@@H](CC(C)C)C(=O)N[C@@H](CO)C(=O)N[C@@H](C)C(=O)N[C@@H](CCC(=O)O)C(=O)N[C@@H](CC(C)C)C(=O)N[C@@H](Cc1cnc[nH]1)C(=O)N[C@@H](CCC(=O)O)C(=O)N[C@@H](CC(C)C)C(=O)N[C@@H](C)C(=O)N[C@H](C(=O)N[C@@H](CC(C)C)C(=O)N1CCC[C@H]1C(=O)N[C@@H](CCCNC(=N)N)C(=O)N[C@H](C(=O)N[C@@H](CCC(=O)O)C(=O)N[C@H](C(=O)NCC(=O)N1CCC[C@H]1C(=O)N[C@@H](CCC(=O)O)C(=O)N[C@@H](CO)C(=O)N1CCC[C@H]1C(N)=O)[C@@H](C)O)[C@@H](C)O)[C@@H](C)O ({C18 diacid}-EASELSTAILGRLSAELHELATLPRTETGPESP-NH2) | ≥ 200 µM | ≥ 200 µM | 0.417 nM | – | ≥ 200 µM | ≥ 200 µM | ≥ 200 µM | 0.005 nM | 0.016 nM | ≥ 200 µM | ≥ 200 µM
